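Values below derive from 48-hour exposures of cells grown in 96-well plates, with endpoints linearly interpolated between the two concentrations bracketing the appropriate inhibition level. Here, GI50 denotes the concentration required for 50% inhibition of growth.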 Activity calls are given as the source filed them. No stated cut-off is given here; in the data, active = GI50 up to about 1.1 µM and inactive = higher.
Tests used:
Test in all cases: DTP human tumour cell line panel, 48 h
786-0 = test system: 786-0
A498 = test system: A498
A549 = test system: A549
ACHN = test system: ACHN
BT-549 = test system: BT-549
CAKI-1 = test system: CAKI-1
CCRF-CEM = test system: CCRF-CEM
COLO 205 = test system: COLO 205
DU-145 = test system: DU-145
EKVX = test system: EKVX
HCT-116 = test system: HCT-116
HCT-15 = test system: HCT-15
HL-60 = test system: HL-60
HOP-62 = test system: HOP-62
HOP-92 = test system: HOP-92
HT-29 = test system: HT-29
Hs-578T = test system: Hs-578T
IGROV-1 = test system: IGROV-1
K562 = test system: K562
LOX IMVI = test system: LOX IMVI
M14 = test system: M14
MCF7 = test system: MCF7
MDA-MB-231 = test system: MDA-MB-231
MDA-MB-435 = test system: MDA-MB-435
MDA-N = test system: MDA-N
MOLT-4 = test system: MOLT-4
Malme-3M = test system: Malme-3M
NCI-H226 = test system: NCI-H226
NCI-H23 = test system: NCI-H23
NCI-H522 = test system: NCI-H522
NCI/ADR-RES = test system: NCI/ADR-RES
OVCAR-3 = test system: OVCAR-3
OVCAR-4 = test system: OVCAR-4
OVCAR-5 = test system: OVCAR-5
OVCAR-8 = test system: OVCAR-8
PC-3 = test system: PC-3
RPMI-8226 = test system: RPMI-8226
RXF 393 = test system: RXF 393
SF-268 = test system: SF-268
SF-295 = test system: SF-295
SF-539 = test system: SF-539
SK-MEL-28 = test system: SK-MEL-28
SK-MEL-2 = test system: SK-MEL-2
SK-MEL-5 = test system: SK-MEL-5
SK-OV-3 = test system: SK-OV-3
SN12C = test system: SN12C
SNB-19 = test system: SNB-19
SNB-75 = test system: SNB-75
SR = test system: SR
T47D = test system: T47D
TK-10 = test system: TK-10
U-251 = test system: U-251
UACC-257 = test system: UACC-257
UACC-62 = test system: UACC-62
UO-31 = test system: UO-31
HCC 2998 = test system: HCC 2998
KM12 = test system: KM12
NCI-H460 = test system: NCI-H460
SW-620 = test system: SW-620

CN(C)/C=N/c1c2c(nc3ccccc13)CCCC2
GI50 (786-0): > 100 µM (inactive)
GI50 (A498): 49.9 µM (inactive)
GI50 (A549): 57.9 µM (inactive)
GI50 (ACHN): > 100 µM (inactive)
GI50 (BT-549): > 100 µM (inactive)
GI50 (CAKI-1): > 100 µM (inactive)
GI50 (CCRF-CEM): 44 µM (inactive)
GI50 (COLO 205): 70.8 µM (inactive)
GI50 (DU-145): > 100 µM (inactive)
GI50 (EKVX): > 100 µM (inactive)
GI50 (HCT-116): 39.1 µM (inactive)
GI50 (HCT-15): > 100 µM
GI50 (HL-60): 31.1 µM (inactive)
GI50 (HOP-62): > 100 µM (inactive)
GI50 (HOP-92): 33.1 µM (inactive)
GI50 (HT-29): 36.7 µM (inactive)
GI50 (Hs-578T): > 100 µM (inactive)
GI50 (IGROV-1): > 100 µM (inactive)
GI50 (K562): 32 µM (inactive)
GI50 (LOX IMVI): 91 µM (inactive)
GI50 (M14): > 100 µM (inactive)
GI50 (MCF7): 72.9 µM (inactive)
GI50 (MDA-MB-231): > 100 µM (inactive)
GI50 (MDA-MB-435): > 100 µM (inactive)
GI50 (MDA-N): 61.7 µM (inactive)
GI50 (MOLT-4): 59.8 µM (inactive)
GI50 (Malme-3M): > 100 µM (inactive)
GI50 (NCI-H226): 36 µM (inactive)
GI50 (NCI-H23): 50.7 µM (inactive)
GI50 (NCI-H522): > 100 µM (inactive)
GI50 (NCI/ADR-RES): 37.3 µM (inactive)
GI50 (OVCAR-3): 38.6 µM (inactive)
GI50 (OVCAR-4): 75.2 µM (inactive)
GI50 (OVCAR-5): > 100 µM (inactive)
GI50 (OVCAR-8): 50.1 µM (inactive)
GI50 (PC-3): 38.5 µM (inactive)
GI50 (RPMI-8226): 53.3 µM (inactive)
GI50 (RXF 393): > 100 µM (inactive)
GI50 (SF-268): > 100 µM (inactive)
GI50 (SF-295): 41.5 µM (inactive)
GI50 (SF-539): 96.4 µM (inactive)
GI50 (SK-MEL-28): 44.2 µM (inactive)
GI50 (SK-MEL-2): > 100 µM (inactive)
GI50 (SK-MEL-5): > 100 µM (inactive)
GI50 (SK-OV-3): > 100 µM (inactive)
GI50 (SN12C): > 100 µM (inactive)
GI50 (SNB-19): > 100 µM (inactive)
GI50 (SNB-75): 93.8 µM (inactive)
GI50 (SR): 25.9 µM (inactive)
GI50 (T47D): 66.2 µM (inactive)
GI50 (TK-10): > 100 µM (inactive)
GI50 (U-251): > 100 µM (inactive)
GI50 (UACC-257): 71 µM (inactive)
GI50 (UACC-62): > 100 µM (inactive)
GI50 (UO-31): 67.8 µM (inactive)

O=c1cc(C(F)(F)F)c2cc3c(cc2o1)NCCC3
GI50 (786-0): 35.2 µM (inactive)
GI50 (A498): > 100 µM (inactive)
GI50 (A549): > 100 µM (inactive)
GI50 (ACHN): > 100 µM (inactive)
GI50 (BT-549): > 100 µM (inactive)
GI50 (CAKI-1): 86.9 µM (inactive)
GI50 (CCRF-CEM): > 100 µM (inactive)
GI50 (COLO 205): > 100 µM (inactive)
GI50 (DU-145): > 100 µM (inactive)
GI50 (EKVX): 6.4 µM (inactive)
GI50 (HCC 2998): > 100 µM (inactive)
GI50 (HCT-116): 28.8 µM (inactive)
GI50 (HCT-15): > 100 µM
GI50 (HL-60): > 100 µM (inactive)
GI50 (HOP-62): 17.1 µM (inactive)
GI50 (HOP-92): 46.1 µM (inactive)
GI50 (HT-29): > 100 µM (inactive)
GI50 (Hs-578T): 18.5 µM (inactive)
GI50 (IGROV-1): 97.3 µM (inactive)
GI50 (K562): > 100 µM (inactive)
GI50 (KM12): > 100 µM (inactive)
GI50 (LOX IMVI): > 100 µM (inactive)
GI50 (M14): > 100 µM (inactive)
GI50 (MCF7): 3.16 µM (inactive)
GI50 (MDA-MB-231): > 100 µM (inactive)
GI50 (MDA-MB-435): > 100 µM (inactive)
GI50 (MDA-N): > 100 µM (inactive)
GI50 (MOLT-4): > 100 µM (inactive)
GI50 (Malme-3M): > 100 µM (inactive)
GI50 (NCI-H226): > 100 µM (inactive)
GI50 (NCI-H23): > 100 µM (inactive)
GI50 (NCI-H460): > 100 µM (inactive)
GI50 (NCI-H522): 49.5 µM (inactive)
GI50 (NCI/ADR-RES): > 100 µM (inactive)
GI50 (OVCAR-3): > 100 µM (inactive)
GI50 (OVCAR-4): 70.6 µM (inactive)
GI50 (OVCAR-5): > 100 µM (inactive)
GI50 (OVCAR-8): 42.2 µM (inactive)
GI50 (PC-3): 85.3 µM (inactive)
GI50 (RPMI-8226): > 100 µM (inactive)
GI50 (RXF 393): < 0.01 µM (active)
GI50 (SF-268): 24.5 µM (inactive)
GI50 (SF-295): 35 µM (inactive)
GI50 (SF-539): > 100 µM (inactive)
GI50 (SK-MEL-28): > 100 µM (inactive)
GI50 (SK-MEL-2): 78.3 µM (inactive)
GI50 (SK-MEL-5): 78.3 µM (inactive)
GI50 (SN12C): > 100 µM (inactive)
GI50 (SNB-19): 23 µM (inactive)
GI50 (SR): > 100 µM (inactive)
GI50 (SW-620): > 100 µM (inactive)
GI50 (T47D): 9.46 µM (inactive)
GI50 (TK-10): > 100 µM (inactive)
GI50 (U-251): 23.1 µM (inactive)
GI50 (UACC-257): > 100 µM (inactive)
GI50 (UO-31): 61.1 µM (inactive)
